Data reported in article PMC6835155, “Lessons from LIMK1 enzymology and their impact on inhibitor design” (Biochemical Journal, 2019).
Counter-ions that a name gives are not always drawn. Like-named read-outs stand apart in the source and are kept apart here.

Assays:
LIMK1KD = molecular target: T1, LIMK1KD (Homo sapiens, UniProt P53667); assay: Differential (dynamic) scanning fluorimetry (DSF) assay, LIMK1KD; type: binding; conditions: for ΔTm at 10 µM: read-out: TM Shift LIMK1 (K)
T1 construct: His6 (N, cleaved yes); made in house; host or cells: baculovirus; Sf9 for virus, TriEx insect cells for expression

LIMK2KD = molecular target: T2, LIMK2KD (Homo sapiens, UniProt P53671); assay: Differential (dynamic) scanning fluorimetry (DSF) assay, LIMK2KD; type: binding; conditions: for ΔTm at 10 µM: read-out: TM Shift LIMK2 (K)
T2 construct: The cDNA coding for LIMK2 residues 330 to 632 was PCR amplified; His6 (N, cleaved yes); made in house; host or cells: baculovirus; Sf9 for virus, TriEx insect cells for expression

[1] = 2 µM LIMK1KD, compound 10 µM, single shot
[2] = LIMK2KD, compound 10 µM, single shot
[3] = LIMK2KD, compound 10 µM, single shot, 10 µM

T1 sequence (P53667 330-637): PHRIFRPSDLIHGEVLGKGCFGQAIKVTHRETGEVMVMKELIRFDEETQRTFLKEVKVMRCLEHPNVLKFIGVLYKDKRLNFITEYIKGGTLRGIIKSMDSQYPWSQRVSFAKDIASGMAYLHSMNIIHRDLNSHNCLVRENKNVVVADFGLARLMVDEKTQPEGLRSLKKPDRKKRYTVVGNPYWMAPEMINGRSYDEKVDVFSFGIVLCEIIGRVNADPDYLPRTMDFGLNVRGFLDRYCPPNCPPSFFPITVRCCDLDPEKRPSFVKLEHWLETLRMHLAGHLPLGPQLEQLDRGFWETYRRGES
T2 sequence (P53671 330-632): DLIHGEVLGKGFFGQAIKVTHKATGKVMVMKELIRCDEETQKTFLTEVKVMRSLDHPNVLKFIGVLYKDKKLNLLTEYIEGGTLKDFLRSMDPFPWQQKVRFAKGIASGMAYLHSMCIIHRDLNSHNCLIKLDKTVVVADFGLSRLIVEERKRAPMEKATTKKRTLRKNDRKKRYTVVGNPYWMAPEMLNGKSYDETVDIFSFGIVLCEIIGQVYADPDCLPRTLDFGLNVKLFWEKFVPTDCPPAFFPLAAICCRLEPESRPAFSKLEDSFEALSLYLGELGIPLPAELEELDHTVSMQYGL

Row | Compound | TM Shift LIMK1 (K) (LIMK1KD; [1]) | TM Shift LIMK2 (K) (LIMK2KD; [2]) | ΔTm at 10 µM (LIMK1KD; [1]) | ΔTm at 10 µM (LIMK2KD; [2]) | also measured
1 | CCCCCCCCCCCCc1ccc(S(=O)(=O)Nc2nncs2)cc1 [PHT-427] | 0.6 K | 1.6 K |  |  | 
2 | CHIR-98014 |  |  |  |  | TM Shift LIMK1 (K) (LIMK1KD): 5.0 K; TM Shift LIMK2 (K) (LIMK2KD; 10 µM): 0.0 K
3 | Cc1cnc(Nc2ccc(OCCN3CCCC3)cc2)nc1Nc1cccc(S(=O)(=O)NC(C)(C)C)c1 [TG101348 (SAR302503)] | 2.0 K |  |  |  | TM Shift LIMK2 (K) (LIMK2KD; [3]): 0.7 K
4 | Cc1cc(C(=O)NOCCO)c(Nc2ccc(I)cc2F)n(C)c1=O [AZD8330] |  |  | 0.3 °C | 0.2 °C | 
5 | Cc1ccc(NC(=O)c2ccc(CN3CCN(C)CC3)cc2)cc1Nc1nccc(-c2cccnc2)n1 [Imatinib (STI571), Imatinib] | 0.8 K |  |  | 1 °C | 
6 | CCn1c(=O)c(-c2cc[nH]n2)cc2c(C)nc(N)nc21 [SAR245409 (XL765)] | 1.0 K |  |  |  | TM Shift LIMK2 (K) (LIMK2KD; [3]): 6.6 K
7 | Oc1c2ccccc2c2c3c(cccc13)N=N2 [SP600125] |  |  | 1 °C | 2.1 °C | 
8 | C=CC(=O)Nc1cccc(Sc2nc(Nc3ccc(N4CCN(C)CC4)cc3)ncc2Cl)c1 [WZ8040] | 3.1 K | 5.2 K |  |  | 
9 | Nc1nc(N)c(N=O)c(OCC2CCCCC2)n1 [NU6027] |  |  | 0.8 °C | -0.9 °C | 
10 | CCS(=O)(=O)Nc1ccc2c(c1)/C(=C(/Nc1ccc(CN3CCCCC3)cc1)c1ccccc1)C(=O)N2 [Hesperadin] |  |  | 2.7 °C | 1.2 °C | 
11 | C[C@]1(O)C[C@@H](c2nc(-c3ccc4ccc(-c5ccccc5)nc4c3)c3c(N)nccn32)C1 [Linsitinib] | 0.8 K |  |  | 0.9 °C | TM Shift LIMK1 (K) (LIMK1KD; 2 µM LIMK1KD, compound 10 µM, single shot, listed as OSI-906 (Linsitinib)): 0.2 K; TM Shift LIMK2 (K) (LIMK2KD; LIMK2KD, compound 10 µM, single shot, listed as OSI-906 (Linsitinib), 10 µM): 0.7 K
12 | NC(=O)c1ccc(N(C(N)=O)c2c(F)cccc2F)nc1-c1ccc(F)cc1F [VX-702] |  |  | 0.6 °C | -0.6 °C | 
13 | COCCOc1ccc2c(c1)ncn2-c1ccc2cccc(N3CCC(N)CC3)c2n1 [CP-673451] |  |  | 0.9 °C | 1.9 °C | 
14 | Nc1ncnc2c1c(-c1cccc(OCc3ccccc3)c1)cn2C1CC(CN2CCCC2)C1 (centres unmarked) [NVP-ADW742] | 0.2 K | 0.1 K |  |  | 
15 | Cc1cc(Nc2cc(N3CCN(C)CC3)nc(/C=C/c3ccccc3)n2)n[nH]1 [ENMD-2076] |  |  | 4.6 °C | 6 °C | 
16 | O=C1NCCc2[nH]c(-c3ccncc3)cc21 [PHA-767491] | 1.2 K | 0.4 K |  |  | 
17 | Cc1nc(NC(=O)N2CCC[C@H]2C(N)=O)sc1-c1csc(C(C)(C)C)n1 [A66] | 0.0 K | 1.0 K |  |  | 
18 | CNC(=O)c1c(F)cccc1Nc1nc(Nc2cc3c(cc2OC)CCN3C(=O)CN(C)C)nc2[nH]ccc12 [GSK1838705A] | 0.4 K | 1.0 K |  |  | 
19 | O=C(NOCC1CC1)c1ccc(F)c(F)c1Nc1ccc(I)cc1Cl [PD184352 (CI-1040)] |  |  | 0.1 °C | 0.9 °C | 
20 | CNC(=O)c1cc(COc2nnc(Nc3ccc(Cl)cc3)c3ccoc23)ccn1 [Telatinib] |  |  | -1.4 °C | 3.3 °C | 
21 | CC(C)(C)n1nc(-c2ccc(Cl)cc2)c2c(N)ncnc21 [PP2] | 2.0 K | 2.4 K |  |  | 
22 | Cc1[nH]c(/C=C2\C(=O)Nc3ccc(S(=O)(=O)Cc4c(Cl)cccc4Cl)cc32)c(C)c1C(=O)N1CCC[C@@H]1CN1CCCC1 [PHA-665752] |  |  | 1.3 °C | -0.4 °C | 
23 | Cc1ccc(S(=O)(=O)/C=C/C#N)cc1 [BAY 11-7082] | -0.8 K | 0.2 K |  |  | 
24 | Oc1cccc(-c2nc(N3CCOCC3)c3oc4ncccc4c3n2)c1 [PI-103] |  |  | -1 °C | 0.3 °C | 
25 | CNc1nc(-c2ccc3c(N)n[nH]c3c2)cc(N2C[C@@H](C(=O)NC3CCCCC3)CC[C@H]2C)n1 [GSK2334470] |  |  | 0.5 °C | 1.1 °C | 
26 | CCOc1cc2ncc(C#N)c(Nc3ccc(F)c(Cl)c3)c2cc1NC(=O)/C=C/CN(C)C [Pelitinib (EKB-569), Pelitinib] |  |  | -0.7 °C | 1.5 °C | 
27 | COCC(=O)NC/C=C/c1ccc2ncnc(Nc3ccc(Oc4ccc(C)nc4)c(C)c3)c2c1 [CP-724714] |  |  | 0.4 °C | -0.8 °C | 
28 | COc1ccc(C(=O)Nc2sc3c(c2C(N)=O)CCCC3)cc1OC [TCS 359] | 1.3 K | 1.1 K |  |  | 
29 | C[C@@H]1CCN(C(=O)CC#N)C[C@@H]1N(C)c1ncnc2[nH]ccc12 [Tofacitinib (CP-690550) Citrate, Tofacitinib] |  |  | -0.4 °C | 3.1 °C | 
30 | Cc1cc(O)c2c(c1)C(=O)c1cccc(O)c1C2=O [Chrysophanic Acid] |  |  | 0.9 °C | 1.3 °C | 
